From the kinase profiling compilation of Christmann-Franck et al. (2016)

Experiments:
Assay in all cases: KINOMEscan competition binding
Settings in all cases: compound 10.0 µM
LIMK1 (human) = LIMK1 (human) (UniProt P53667)
LCK (human) = LCK (human) (UniProt P06239)
NIM1 (human) = NIM1 (human) (UniProt Q8IY84)
PLK4 (human) = PLK4 (human) (UniProt O00444)
WEE1 (human) = WEE1 (human) (UniProt P30291)
AKT3 (human) = AKT3 (human) (UniProt Q9Y243)
MARK4 (human) = MARK4 (human) (UniProt Q96L34)
MAPK4 (human) = MAPK4 (human) (UniProt P31152)
MAPK4 (human), sequence (P31152 whole entry, looked up): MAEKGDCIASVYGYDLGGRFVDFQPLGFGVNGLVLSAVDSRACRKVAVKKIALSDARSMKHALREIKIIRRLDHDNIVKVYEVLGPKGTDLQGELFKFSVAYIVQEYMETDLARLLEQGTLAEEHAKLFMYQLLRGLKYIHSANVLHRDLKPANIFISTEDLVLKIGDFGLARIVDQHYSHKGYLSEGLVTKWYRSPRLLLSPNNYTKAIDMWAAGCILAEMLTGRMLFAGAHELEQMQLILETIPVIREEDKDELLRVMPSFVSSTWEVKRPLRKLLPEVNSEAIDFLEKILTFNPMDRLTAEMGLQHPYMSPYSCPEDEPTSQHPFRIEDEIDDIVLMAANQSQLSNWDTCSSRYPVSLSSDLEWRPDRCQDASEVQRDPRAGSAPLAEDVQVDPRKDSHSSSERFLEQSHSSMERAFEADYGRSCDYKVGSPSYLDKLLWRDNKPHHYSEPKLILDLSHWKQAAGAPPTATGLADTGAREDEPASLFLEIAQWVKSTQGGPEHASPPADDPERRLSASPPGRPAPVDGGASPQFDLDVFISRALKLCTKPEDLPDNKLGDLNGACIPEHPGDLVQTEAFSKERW

FLT3 (human) = FLT3 (human) (UniProt P36888)
RPS6KA4 KD1 (human) = RPS6KA4 KD1 (human) (UniProt O75676)
RIPK4 (human) = RIPK4 (human) (UniProt P57078)
IKBKE (human) = IKBKE (human) (UniProt Q14164)
BTK (human) = BTK (human) (UniProt Q06187)
EPHA1 (human) = EPHA1 (human) (UniProt P21709)
TTK (human) = TTK (human) (UniProt P33981)
TTK (human), sequence (P33981 whole entry, looked up): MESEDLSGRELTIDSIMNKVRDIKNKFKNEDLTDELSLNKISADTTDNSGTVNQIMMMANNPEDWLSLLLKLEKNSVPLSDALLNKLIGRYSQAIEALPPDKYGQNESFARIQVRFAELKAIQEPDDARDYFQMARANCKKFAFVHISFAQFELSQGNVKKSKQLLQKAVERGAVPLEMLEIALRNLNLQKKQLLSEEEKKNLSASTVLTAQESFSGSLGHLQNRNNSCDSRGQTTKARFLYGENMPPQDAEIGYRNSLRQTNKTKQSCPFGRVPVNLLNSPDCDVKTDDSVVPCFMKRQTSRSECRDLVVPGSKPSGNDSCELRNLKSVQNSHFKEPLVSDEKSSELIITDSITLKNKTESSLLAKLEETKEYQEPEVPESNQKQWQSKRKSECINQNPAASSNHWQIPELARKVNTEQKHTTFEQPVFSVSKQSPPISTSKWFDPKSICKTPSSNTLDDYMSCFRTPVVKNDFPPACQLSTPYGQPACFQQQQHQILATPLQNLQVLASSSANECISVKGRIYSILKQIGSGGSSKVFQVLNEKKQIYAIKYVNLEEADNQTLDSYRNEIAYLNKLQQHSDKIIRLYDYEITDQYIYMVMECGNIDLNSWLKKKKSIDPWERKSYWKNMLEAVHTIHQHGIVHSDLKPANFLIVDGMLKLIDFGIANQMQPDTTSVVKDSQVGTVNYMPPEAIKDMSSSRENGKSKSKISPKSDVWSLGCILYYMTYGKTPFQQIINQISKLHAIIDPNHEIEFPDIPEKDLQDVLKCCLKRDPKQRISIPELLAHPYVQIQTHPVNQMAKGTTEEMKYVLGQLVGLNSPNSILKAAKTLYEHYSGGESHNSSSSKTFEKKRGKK

ITK (human) = ITK (human) (UniProt Q08881)
MAPK8 (human) = MAPK8 (human) (UniProt P45983)
MAPK3 (human) = MAPK3 (human) (UniProt P27361)
CDK7 (human) = CDK7 (human) (UniProt P50613)
CDK7 (human), sequence (P50613 whole entry, looked up): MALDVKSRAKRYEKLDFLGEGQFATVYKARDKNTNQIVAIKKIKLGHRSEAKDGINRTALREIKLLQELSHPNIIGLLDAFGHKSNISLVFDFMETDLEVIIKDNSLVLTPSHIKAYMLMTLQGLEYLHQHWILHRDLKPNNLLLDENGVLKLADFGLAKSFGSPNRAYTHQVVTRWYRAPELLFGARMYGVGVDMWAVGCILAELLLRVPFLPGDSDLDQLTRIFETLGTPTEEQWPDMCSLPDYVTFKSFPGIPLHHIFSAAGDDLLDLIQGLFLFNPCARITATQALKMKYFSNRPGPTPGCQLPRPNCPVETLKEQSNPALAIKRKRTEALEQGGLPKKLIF

BRSK2 (human) = BRSK2 (human) (UniProt Q8IWQ3)
TNK2 (human) = TNK2 (human) (UniProt Q07912)
[1] = system: FLT3 (human), P36888 [D835H]
CDK2 (human) = CDK2 (human) (UniProt P24941)
MAP3K7 (human) = MAP3K7 (human) (UniProt O43318)
PIM1 (human) = PIM1 (human) (UniProt P11309)
AXL (human) = AXL (human) (UniProt P30530)
MELK (human) = MELK (human) (UniProt Q14680)
CDK5 (human) = CDK5 (human) (UniProt Q00535)
CAMKK2 (human) = CAMKK2 (human) (UniProt Q96RR4)
GRK4 (human) = GRK4 (human) (UniProt P32298)
PIK3CB (human) = PIK3CB (human) (UniProt P42338)
PIK3CB (human), sequence (P42338 whole entry, looked up): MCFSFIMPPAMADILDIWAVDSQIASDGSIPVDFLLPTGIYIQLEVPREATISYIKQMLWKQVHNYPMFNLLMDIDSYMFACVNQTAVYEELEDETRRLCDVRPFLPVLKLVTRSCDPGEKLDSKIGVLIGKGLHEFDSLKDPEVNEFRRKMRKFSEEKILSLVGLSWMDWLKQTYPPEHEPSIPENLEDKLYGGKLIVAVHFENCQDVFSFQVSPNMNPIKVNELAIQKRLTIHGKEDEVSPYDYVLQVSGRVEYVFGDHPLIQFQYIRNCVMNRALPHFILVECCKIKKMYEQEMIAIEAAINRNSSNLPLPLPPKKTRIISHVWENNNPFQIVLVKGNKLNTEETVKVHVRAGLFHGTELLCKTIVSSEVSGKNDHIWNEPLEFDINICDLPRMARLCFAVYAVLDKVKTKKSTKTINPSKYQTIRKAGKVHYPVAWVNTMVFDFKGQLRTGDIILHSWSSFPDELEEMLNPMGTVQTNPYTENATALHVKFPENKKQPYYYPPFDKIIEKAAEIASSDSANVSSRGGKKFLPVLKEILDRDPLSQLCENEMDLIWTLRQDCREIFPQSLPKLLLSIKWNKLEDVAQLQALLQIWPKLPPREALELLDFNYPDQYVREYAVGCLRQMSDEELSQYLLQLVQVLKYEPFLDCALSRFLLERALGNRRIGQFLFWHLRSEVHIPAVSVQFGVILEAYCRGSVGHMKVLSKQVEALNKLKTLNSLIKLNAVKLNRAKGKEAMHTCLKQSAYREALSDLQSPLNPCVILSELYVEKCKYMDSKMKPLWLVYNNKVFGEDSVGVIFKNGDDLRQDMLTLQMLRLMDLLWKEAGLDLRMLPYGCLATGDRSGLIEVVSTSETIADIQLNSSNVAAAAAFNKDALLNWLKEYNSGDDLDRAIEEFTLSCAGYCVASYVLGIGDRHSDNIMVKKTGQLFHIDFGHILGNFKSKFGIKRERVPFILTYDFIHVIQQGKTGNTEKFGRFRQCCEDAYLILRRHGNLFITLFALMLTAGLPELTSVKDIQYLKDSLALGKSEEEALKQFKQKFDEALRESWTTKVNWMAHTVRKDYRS

EPHB4 (human) = EPHB4 (human) (UniProt P54760)
ERN1 (human) = ERN1 (human) (UniProt O75460)
DYRK2 (human) = DYRK2 (human) (UniProt Q92630)
ZAP70 (human) = ZAP70 (human) (UniProt P43403)
CDC42BPA (human) = CDC42BPA (human) (UniProt Q5VT25)
NEK11 (human) = NEK11 (human) (UniProt Q8NG66)
NEK11 (human), sequence (Q8NG66 whole entry, looked up): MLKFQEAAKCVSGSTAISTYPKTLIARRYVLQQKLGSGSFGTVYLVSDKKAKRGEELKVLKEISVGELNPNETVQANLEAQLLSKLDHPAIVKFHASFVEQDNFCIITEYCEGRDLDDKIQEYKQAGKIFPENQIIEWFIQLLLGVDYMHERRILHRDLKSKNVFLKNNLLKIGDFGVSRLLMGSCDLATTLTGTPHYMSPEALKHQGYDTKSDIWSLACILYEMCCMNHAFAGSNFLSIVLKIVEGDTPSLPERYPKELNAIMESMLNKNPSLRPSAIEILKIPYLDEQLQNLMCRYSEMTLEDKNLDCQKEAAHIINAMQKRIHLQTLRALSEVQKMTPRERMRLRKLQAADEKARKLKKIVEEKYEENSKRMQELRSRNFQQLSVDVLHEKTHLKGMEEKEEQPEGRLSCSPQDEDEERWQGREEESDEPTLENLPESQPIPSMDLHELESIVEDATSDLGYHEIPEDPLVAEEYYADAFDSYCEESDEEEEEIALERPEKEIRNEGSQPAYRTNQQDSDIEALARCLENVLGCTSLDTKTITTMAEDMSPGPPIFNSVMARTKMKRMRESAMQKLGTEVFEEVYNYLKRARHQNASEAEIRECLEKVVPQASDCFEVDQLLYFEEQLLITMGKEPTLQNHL

PRKG1 (human) = PRKG1 (human) (UniProt Q13976)
[2] = system: RET (human), P07949 [M918T]
NEK4 (human) = NEK4 (human) (UniProt P51957)
DDR1 (human) = DDR1 (human) (UniProt Q08345)

WEE1 (human), sequence (P30291 whole entry, looked up): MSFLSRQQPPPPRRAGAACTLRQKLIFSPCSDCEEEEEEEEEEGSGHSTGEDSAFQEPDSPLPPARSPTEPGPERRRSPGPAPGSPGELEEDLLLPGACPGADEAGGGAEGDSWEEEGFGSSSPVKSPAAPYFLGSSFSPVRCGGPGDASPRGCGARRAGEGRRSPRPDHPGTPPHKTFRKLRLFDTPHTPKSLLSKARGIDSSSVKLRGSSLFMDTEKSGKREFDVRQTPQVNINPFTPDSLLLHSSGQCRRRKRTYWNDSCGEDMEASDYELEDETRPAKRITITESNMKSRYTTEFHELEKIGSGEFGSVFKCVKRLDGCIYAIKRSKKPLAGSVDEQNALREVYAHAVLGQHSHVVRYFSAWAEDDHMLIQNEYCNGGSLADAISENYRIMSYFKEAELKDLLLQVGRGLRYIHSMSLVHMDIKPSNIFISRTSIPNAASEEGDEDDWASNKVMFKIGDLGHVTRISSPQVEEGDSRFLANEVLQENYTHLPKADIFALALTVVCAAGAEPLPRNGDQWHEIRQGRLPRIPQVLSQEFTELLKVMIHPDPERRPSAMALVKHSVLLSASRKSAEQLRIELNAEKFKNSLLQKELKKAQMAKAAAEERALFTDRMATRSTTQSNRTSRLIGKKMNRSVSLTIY
MARK4 (human), sequence (Q96L34 whole entry, looked up): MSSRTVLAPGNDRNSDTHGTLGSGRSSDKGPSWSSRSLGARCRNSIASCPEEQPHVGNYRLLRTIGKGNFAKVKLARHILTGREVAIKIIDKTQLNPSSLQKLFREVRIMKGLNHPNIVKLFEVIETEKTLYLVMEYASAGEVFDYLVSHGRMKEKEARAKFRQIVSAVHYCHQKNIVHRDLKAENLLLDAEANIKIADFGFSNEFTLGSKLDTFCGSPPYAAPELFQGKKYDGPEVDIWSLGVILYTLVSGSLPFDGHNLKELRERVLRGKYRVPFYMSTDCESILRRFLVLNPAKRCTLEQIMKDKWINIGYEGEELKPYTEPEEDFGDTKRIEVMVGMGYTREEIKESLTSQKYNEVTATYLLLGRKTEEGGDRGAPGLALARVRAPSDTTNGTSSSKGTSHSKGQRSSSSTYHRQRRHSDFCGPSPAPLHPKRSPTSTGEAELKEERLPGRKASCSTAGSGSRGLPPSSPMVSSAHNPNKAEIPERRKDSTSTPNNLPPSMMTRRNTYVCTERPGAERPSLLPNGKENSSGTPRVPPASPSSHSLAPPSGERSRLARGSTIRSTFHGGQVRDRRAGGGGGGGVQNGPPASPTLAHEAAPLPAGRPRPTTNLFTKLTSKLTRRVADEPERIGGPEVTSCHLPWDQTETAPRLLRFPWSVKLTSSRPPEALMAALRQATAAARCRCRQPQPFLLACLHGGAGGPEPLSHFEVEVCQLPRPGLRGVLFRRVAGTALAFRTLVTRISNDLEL

Question: Which results are given for COc1ccc(N(C(=O)Oc2c(C)cccc2C)c2ccnc(Nc3ccc(N4CCN(C)CC4)cc3)n2)c(OC)c1?
Answer: kinase still bound, per cent of control (LIMK1 (human)): 0%; kinase still bound, per cent of control (LCK (human)): 0.1%; kinase still bound, per cent of control (NIM1 (human)): 100%; kinase still bound, per cent of control (PLK4 (human)): 37%; kinase still bound, per cent of control (WEE1 (human)): 85%; kinase still bound, per cent of control (AKT3 (human)): 100%; kinase still bound, per cent of control (MARK4 (human)): 49%; kinase still bound, per cent of control (MAPK4 (human)): 100%; kinase still bound, per cent of control (FLT3 (human)): 2.3%; kinase still bound, per cent of control (RPS6KA4 KD1 (human)): 100%; kinase still bound, per cent of control (RIPK4 (human)): 92%; kinase still bound, per cent of control (IKBKE (human)): 78%; kinase still bound, per cent of control (BTK (human)): 1.3%; kinase still bound, per cent of control (EPHA1 (human)): 0%; kinase still bound, per cent of control (TTK (human)): 42%; kinase still bound, per cent of control (ITK (human)): 100%; kinase still bound, per cent of control (MAPK8 (human)): 64%; kinase still bound, per cent of control (MAPK3 (human)): 100%; kinase still bound, per cent of control (CDK7 (human)): 100%; kinase still bound, per cent of control (BRSK2 (human)): 81%; kinase still bound, per cent of control (TNK2 (human)): 0%; kinase still bound, per cent of control [1]: 3%; kinase still bound, per cent of control (CDK2 (human)): 65%; kinase still bound, per cent of control (MAP3K7 (human)): 57%; kinase still bound, per cent of control (PIM1 (human)): 100%; kinase still bound, per cent of control (AXL (human)): 17%; kinase still bound, per cent of control (MELK (human)): 46%; kinase still bound, per cent of control (CDK5 (human)): 98%; kinase still bound, per cent of control (CAMKK2 (human)): 56%; kinase still bound, per cent of control (GRK4 (human)): 7.9%; kinase still bound, per cent of control (PIK3CB (human)): 100%; kinase still bound, per cent of control (EPHB4 (human)): 0%; kinase still bound, per cent of control (ERN1 (human)): 62%; kinase still bound, per cent of control (DYRK2 (human)): 80%; kinase still bound, per cent of control (ZAP70 (human)): 79%; kinase still bound, per cent of control (CDC42BPA (human)): 16%; kinase still bound, per cent of control (NEK11 (human)): 100%; kinase still bound, per cent of control (PRKG1 (human)): 100%; kinase still bound, per cent of control [2]: 0.1%; kinase still bound, per cent of control (NEK4 (human)): 74%; kinase still bound, per cent of control (DDR1 (human)): 0.25%

Question: O=C(Nc1cccc(Nc2ncc(Br)c(NCCc3cnc[nH]3)n2)c1)N1CCCC1 was tested. Which kinase still bound, per cent of control (LIMK1 (human)) did it give?
Answer: The kinase still bound, per cent of control was 38%.

Question: And the kinase still bound, per cent of control (LCK (human))?
Answer: Its kinase still bound, per cent of control is 3.4%.

Question: What about the kinase still bound, per cent of control (NIM1 (human)) of the same molecule?
Answer: Its kinase still bound, per cent of control is 0.05%.

Question: And the kinase still bound, per cent of control (PLK4 (human))?
Answer: The kinase still bound, per cent of control was 0.7%.

Question: And the kinase still bound, per cent of control (WEE1 (human))?
Answer: Its kinase still bound, per cent of control is 52%.

Question: And the kinase still bound, per cent of control (AKT3 (human))?
Answer: The kinase still bound, per cent of control was 100%.

Question: And the kinase still bound, per cent of control (MARK4 (human))?
Answer: Its kinase still bound, per cent of control is 0%.

Question: What about the kinase still bound, per cent of control (MAPK4 (human)) of the same molecule?
Answer: Its kinase still bound, per cent of control is 3.2%.

Question: And the kinase still bound, per cent of control (FLT3 (human))?
Answer: Its kinase still bound, per cent of control is 0%.

Question: And the kinase still bound, per cent of control (RPS6KA4 KD1 (human))?
Answer: The kinase still bound, per cent of control was 2.1%.

Question: What about the kinase still bound, per cent of control (RIPK4 (human)) of the same molecule?
Answer: Its kinase still bound, per cent of control is 0.3%.

Question: What about the kinase still bound, per cent of control (IKBKE (human)) of the same molecule?
Answer: The kinase still bound, per cent of control was 4.6%.

Question: And the kinase still bound, per cent of control (BTK (human))?
Answer: The kinase still bound, per cent of control was 5.2%.

Question: What about the kinase still bound, per cent of control (EPHA1 (human)) of the same molecule?
Answer: The kinase still bound, per cent of control was 35%.

Question: And the kinase still bound, per cent of control (TTK (human))?
Answer: The kinase still bound, per cent of control was 5%.

Question: And the kinase still bound, per cent of control (ITK (human))?
Answer: Its kinase still bound, per cent of control is 4.5%.

Question: And the kinase still bound, per cent of control (MAPK8 (human))?
Answer: The kinase still bound, per cent of control was 0.2%.

Question: What about the kinase still bound, per cent of control (MAPK3 (human)) of the same molecule?
Answer: Its kinase still bound, per cent of control is 76%.

Question: What about the kinase still bound, per cent of control (CDK7 (human)) of the same molecule?
Answer: The kinase still bound, per cent of control was 0.55%.

Question: What about the kinase still bound, per cent of control (BRSK2 (human)) of the same molecule?
Answer: Its kinase still bound, per cent of control is 5.8%.

Question: And the kinase still bound, per cent of control (TNK2 (human))?
Answer: The kinase still bound, per cent of control was 18%.

Question: What about the kinase still bound, per cent of control [1] of the same molecule?
Answer: Its kinase still bound, per cent of control is 0.2%.

Question: And the kinase still bound, per cent of control (CDK2 (human))?
Answer: Its kinase still bound, per cent of control is 43%.

Question: And the kinase still bound, per cent of control (MAP3K7 (human))?
Answer: The kinase still bound, per cent of control was 1.3%.

Question: What about the kinase still bound, per cent of control (PIM1 (human)) of the same molecule?
Answer: Its kinase still bound, per cent of control is 87%.

Question: And the kinase still bound, per cent of control (AXL (human))?
Answer: The kinase still bound, per cent of control was 1.2%.

Question: And the kinase still bound, per cent of control (MELK (human))?
Answer: Its kinase still bound, per cent of control is 2.2%.

Question: And the kinase still bound, per cent of control (CDK5 (human))?
Answer: Its kinase still bound, per cent of control is 24%.

Question: What about the kinase still bound, per cent of control (CAMKK2 (human)) of the same molecule?
Answer: The kinase still bound, per cent of control was 2%.

Question: And the kinase still bound, per cent of control (GRK4 (human))?
Answer: Its kinase still bound, per cent of control is 5.6%.

Question: What about the kinase still bound, per cent of control (PIK3CB (human)) of the same molecule?
Answer: Its kinase still bound, per cent of control is 100%.

Question: And the kinase still bound, per cent of control (EPHB4 (human))?
Answer: The kinase still bound, per cent of control was 78%.

Question: What about the kinase still bound, per cent of control (ERN1 (human)) of the same molecule?
Answer: Its kinase still bound, per cent of control is 34%.

Question: What about the kinase still bound, per cent of control (DYRK2 (human)) of the same molecule?
Answer: Its kinase still bound, per cent of control is 3.4%.

Question: What about the kinase still bound, per cent of control (ZAP70 (human)) of the same molecule?
Answer: Its kinase still bound, per cent of control is 7.1%.

Question: And the kinase still bound, per cent of control (CDC42BPA (human))?
Answer: Its kinase still bound, per cent of control is 95%.

Question: What about the kinase still bound, per cent of control (NEK11 (human)) of the same molecule?
Answer: Its kinase still bound, per cent of control is 85%.

Question: And the kinase still bound, per cent of control (PRKG1 (human))?
Answer: The kinase still bound, per cent of control was 72%.

Question: What about the kinase still bound, per cent of control [2] of the same molecule?
Answer: The kinase still bound, per cent of control was 0.05%.

Question: And the kinase still bound, per cent of control (NEK4 (human))?
Answer: The kinase still bound, per cent of control was 9.4%.

Question: And the kinase still bound, per cent of control (DDR1 (human))?
Answer: Its kinase still bound, per cent of control is 100%.
